# Assay results: patent US20090105251A1, “Renin inhibitors” (priority 2007, published 2009)
# Target: T1, Recombinant human renin (Homo sapiens, UniProt P00797)
# T1 construct: isolate the active form (residues 67-406); made in house
# T1 sequence (P00797 67-406): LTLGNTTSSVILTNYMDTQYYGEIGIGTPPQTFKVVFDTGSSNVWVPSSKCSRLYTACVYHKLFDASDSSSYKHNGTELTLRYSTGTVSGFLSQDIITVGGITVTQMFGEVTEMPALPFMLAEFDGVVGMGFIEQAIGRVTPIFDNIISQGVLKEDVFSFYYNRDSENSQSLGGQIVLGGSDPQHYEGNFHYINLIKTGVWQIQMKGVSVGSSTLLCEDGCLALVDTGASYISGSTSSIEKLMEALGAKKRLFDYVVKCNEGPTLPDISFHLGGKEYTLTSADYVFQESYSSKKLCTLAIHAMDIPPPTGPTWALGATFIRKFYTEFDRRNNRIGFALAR
# Assay: In vitro enzymatic activity assay of renin inhibitors (fluorogenic peptide substrate)
# Assay type: biochemical
# Details: recombinant human renin 3 nM, 1 μM substrate QXL520/HiLyteFluo488 peptide, pH 7.4, 37° C., fluorescence; values given as ranges; read-out: IC50 of Exemplified Compounds Against Renin, IC50
# From the text: Test compounds in varying concentrations may be reacted with recombinant human renin in the presence of substrate, e.g., QXL520-γ-Abu-Ile-His-Pro-Phe-His-Leu-Val-Ile-His-Thr-Lys (HiLyteFluo488)-Arg-OH (Anaspec, San Jose, Calif.). The reaction can be followed kinetically using fluorescence (excitation λ=485 nm; emission λ=538 nm). Inhibition constants (IC50) may be calculated by non-linear curve fitting of the compound concentrations and fluorescence intensities to the standard IC50 equation.
# Solutions of test compounds in varying concentrations (≦2 mM final concentration) are prepared in dimethyl sulfoxide (DMSO) and then diluted into assay buffer comprising 50 mM Hepes, 1 mM EDTA, 1 mM DTT, 0.1 mg/ml BSA, 0.01% Brij35, pH 7.4. Alternatively, the assay can be performed with a high BSA concentration, wherein the buffer contains an additional 2% BSA.
# Recombinant human renin (3 nM final concentration) is added to the dilutions and pre-incubated with the compounds for 10 minutes at 37° C. As described in Examples A-C above, human renin can be obtained by expressing preprorenin (residue 1-406) in mammalian cells, treating the prorenin (residues 24-406) contained in the culture supernatant with trypsin, and isolate the active form (residues 67-406). After pre-incubation, the reaction is initiated with 1 μM of substrate QXL520-γ-Abu-Ile-His-Pro-Phe-His-Leu-Val-Ile-His-Thr-Lys (HiLyteFluo488)-Arg-OH (Anaspec, San Jose, Calif.). The final DMSO in the assay is 5%. The total volume of the reaction mixture is 20 μL, which can be placed on Greiner 384-well small volume plates.
# Renin activity may be determined via fluorescence (excitation λ=485 nm; emission λ=538 nm), e.g., on a Molecular Devices SPECTROmax GEMINI XPS. The fluorescence intensity is determined upon the addition of substrate and determined again after incubation at 37° C. for one hour. The fluorescence intensity of a blank (no inhibition) using vehicle alone is also determined. Renin activity is linearly proportional to the change in fluorescence observed (final−initial).
# The percent inhibition of renin at a given compound concentration is defined as:
# 100%×[1−(Fcompound/Fblank)]
# where Fcompound is the observed fluorescence at a given concentration of test compound and Fblank is the observed fluorescence in the presence of vehicle alone.
# The pIC50 value (negative log of the molar concentration of the compound that produces 50% inhibition) of a test compound is calculated by non-linear least squares curve fitting of the equation:
# Percent Inhibition=100%/(1+(10^−pIC50/10^log [I]))
# to percent inhibition versus compound concentration. The 50% inhibitory concentration (IC50) of a test compound is calculated by raising 10 to the negative pIC50 (10^−pIC50).
row,SMILES,IC50 [µM]
1,"Cc1nn(C)c(C(=O)N2CCNC[C@H]2Cc2ccccc2)c1-c1ccccc1Oc1ccccc1 [Example 13, ((R)-2-benzylpiperazin-1-yl)(1,3-dimethyl-4-(2-phenoxyphenyl)-1H-pyrazol-5-yl)methanone]",1 to 50
2,"N#Cc1ccccc1Sc1ccccc1C(=O)N1CCNC[C@H]1Cc1ccccc1 [Example 20, (R)-2-(2-(2-benzylpiperazine-1-carbonyl)phenylthio)benzonitrile]",1 to 50
3,"N#Cc1cccnc1Oc1ccccc1-c1ccsc1C(=O)N1CCNC[C@H]1Cc1ccccc1 [Example 11, 2-(2-(2-((R)-2-benzylpiperazine-1-carbonyl)thiophen-3-yl)phenoxy)nicotinonitrile]",1 to 50
4,"O=C(C1CC1c1ccccc1)N1CCNCC1Cc1ccccc1 (stereo in doubt) [Example 2, ((S)-2-benzylpiperazin-1-yl)(2-phenylcyclopropyl)methanone]",> 100
5,"Cc1cc(C)c(C#N)c(Oc2ccccc2-c2ccsc2C(=O)N2CCNC[C@H]2Cc2ccccc2)n1 [Example 9, 2-(2-(2-((R)-2-benzylpiperazine-1-carbonyl)thiophen-3-yl)phenoxy)-4,6-dimethylnicotinonitrile]",1 to 50
6,"O=C(c1ccsc1-c1ccccc1Oc1ccccc1)N1CCNC[C@H]1Cc1ccccc1 [Example 12, ((R)-2-benzylpiperazin-1-yl)(2-(2-phenoxyphenyl)thiophen-3-yl)methanone]",< 1
7,"O=C(c1sccc1-c1cnn(Cc2ccccc2)c1)N1CCNC[C@H]1Cc1ccccc1 [Example 18, (R)-(3-(1-benzyl-1H-pyrazol-4-yl)thiophen-2-yl)(2-benzylpiperazin-1-yl)methanone]",1 to 50
8,"N#Cc1ccccc1Oc1ccccc1-c1ccsc1C(=O)N1CCNC[C@H]1Cc1ccccc1 [Example 10, 2-(2-(2-((R)-2-benzylpiperazine-1-carbonyl)thiophen-3-yl)phenoxy)benzonitrile]",1 to 50

# Second part, the compound after the results:
row,IC50 [µM],SMILES
1,1 to 50,"CC(C)(C)n1ncc(C(=O)N2CCNC[C@H]2Cc2ccccc2)c1-c1ccccc1 [Example 38, (R)-(2-benzylpiperazin-1-yl)(1-tert-butyl-5-phenyl-1H-pyrazol-4-yl)methanone]"
2,1 to 50,"O=C1CC(C(=O)N2CCNC[C@H]2Cc2ccccc2)CN1C(c1ccccc1)c1ccccc1 (stereo partly drawn) [Example 24, 1-benzhydryl-4-((R)-2-benzylpiperazine-1-carbonyl)pyrrolidin-2-one]"
3,1 to 50,"O=C(c1ccc(-c2ccccc2Oc2ccccc2)o1)N1CCNC[C@H]1Cc1ccccc1 [Example 45, (R)-(2-benzylpiperazin-1-yl)(5-(2-phenoxyphenyl)furan-2-yl)methanone]"
4,1 to 50,"Cc1cc2cc(C(=O)N3CCNC[C@H]3Cc3ccccc3)n(Cc3ccccc3)c2s1 [Example 34, (R)-(6-benzyl-2-methyl-6H-thieno[2,3-b]pyrrol-5-yl)(2-benzylpiperazin-1-yl)methanone]"
5,> 100,"Cc1n[nH]c(C)c1-c1ccccc1C(=O)N1CCNC[C@H]1Cc1ccccc1 [Example 28, ((R)-2-benzylpiperazin-1-yl)(2-(3,5-dimethyl-1H-pyrazol-4-yl)phenyl)methanone]"
6,1 to 50,"Cc1oc(-c2ccccc2)nc1Cn1nc(C(=O)N2CCNC[C@H]2Cc2ccccc2)c2ccccc21 [Example 37, (R)-(2-benzylpiperazin-1-yl)(1-((5-methyl-2-phenyloxazol-4-yl)methyl)-1H-indazol-3-yl)methanone]"
